According to patent US8293479B2, “Use of parathyroid hormone-related protein(PTHRP) in the diagnosis and treatment of chronic lung disease and other pathologies” (Los Angeles Biomedical Research Institute at Harbor UCLA …, priority 2002, dated 2012):

Tests used:
[1] = test system: fetal rat lung type II cells; test: Co-culture of fetal rat type II cells with PGJ2-pretreated myofibroblasts, cell count and RT-PCR for Surfactant Protein B; format: cell-based
Procedure: FIGS. 14A and 14B show the effect of lipofibroblasts and myofibroblasts on fetal rat type II cell growth and differentiation. Fetal type II cells were co-cultured with lipofibroblasts, myofibroblasts or myofibroblasts pretreated with PGJ2. Cell growth was determined by cell count and differentiation was determined by RT-PCR for Surfactant Protein B. Note that in the presence of lipofibroblasts or myofibroblasts treated with PGJ2 that type II cells grow (see Figure on left) and differentiate (Figure on right) with time in culture. […] Day 1 v subsequent day in culture, *, p<0.05; **; p<0.01; ***,p<0.0001 by Analysis of Variance.
In order to link the process of fibroblast transdifferentiation to alveolarization, we recombined day 19 fetal rat lung type II cells with either P1 lipofibroblasts, P10 myofibroblasts, or P10 myofibroblasts pretreated with PGJ2; PGJ2 induces the transdifferentiation of myofibroblasts to lipofibroblasts (Hu et al. (1995) Proc. Natl. Acad. Sci. USA 92:9856-9860).

Myofibroblasts (P10s) = test: PGJ2 treatment of P10 myofibroblasts, lipofibroblast marker expression; format: cell-based, rat; conditions: PGJ2 30 µM, up to 144 hours (FIG. 13)
[2] = test system: fetal rat lung fibroblasts (FRLF); test: PGJ2 treatment of fetal rat lung fibroblasts, spontaneous and hyperoxia-induced lipo-to-myofibroblast transdifferentiation; format: cell-based; conditions: PGJ2 30 µM
Procedure: e18 (pre-term) and e21 (near term) fetal rat lung fibroblasts were maintained in DMEM+10% fetal bovine serum in 21% (control) or 95% (experimental) O2+5% CO2 in sealed modular incubator chambers (Billups-Rothenberg, Del Mar, Calif.) kept at 37° C. in standard incubators. Modular incubators were flushed for 3 min at a flow rate of 10 liters/min with either 21 or 95% O2+5% CO2 with remainder of the gas mixture as N2. Modular incubators were then sealed and then put in standard cell culture incubators. When confluent, cells were passaged and allowed to grow in 21% O2 for 24 h. Subsequently, control cells were maintained in 21% O2+5% CO2 and experimental cells in 95% O2+5% CO2 in modular incubators as described above This was continued up to passage 5. Passage 1 and 5 cells were studied for the expression of various lipogenic and myogenic markers by reverse transcriptase-polymerase chain reaction (RT-PCR).
RT PCR probes used included-Rat Parathyroid Hormone related Protein Receptor (PTHrPR): 5′ CTCTTCTTGACTGTTGTCGCTGGT (SEQ ID NO:14) and 3′[…] […] Rat alpha Smooth Muscle Actin (SMA). RT-PCR was carried out for 2 hours at 37° C. in 50 mM Tris buffer, pH 8.3 containing 75 mM KCl, 3 mM MgCl2 and 10 mM DTT. […] The cDNA is adjusted to equal concentrations as assessed by the PCR of the constitutively expressed gene, GAPDH (rat lung GAPDH). […]

[3] = test system: E21 fetal rat lung lipofibroblasts; test: PTHrP treatment of serially passaged (P4) transdifferentiating lipofibroblasts, marker expression by competitive RT-PCR; format: cell-based; conditions: PTHrP 0.5 µM, compared with P1
[4] = test system: E19 fetal rat lung fibroblasts; test: PTHrP treatment of fetal rat lung fibroblasts, ADRP mRNA by competitive RT-PCR; format: cell-based; conditions: 0.5 µM PTHrP (printed 0.5:M), 15 hours, normalized to GAPDH
d18 FRLFs = test: Antioxidant pretreatment of FRLFs exposed to hyperoxia, ADRP mRNA expression; format: cell-based, rat; conditions: 95% O2 for 24 h, one hour antioxidant pretreatment
Procedure: RT-PCR was carried out for 2 hours at 37° C. in 50 mM Tris buffer, pH 8.3 containing 75 mM KCl, 3 mM MgCl2 and 10 mM DTT. The total volume of incubation was 20 μl and it contained 0.5 mM each of dNTP, 20 U of RNasin, 25 pmol of oligo(dt) primer and 200 U of Moroney murine leukemia virus reverse transcriptase. […] The cDNA is adjusted to equal concentrations as assessed by the PCR of the constitutively expressed gene, GAPDH (rat lung GAPDH). […]

`CCCCC[C@H](O)/C=C/[C@H]1C(=O)C=C[C@@H]1C/C=C\CCCC(=O)O` [PGJ2, prostaglandin J2] was tested, and the “Surfactant Protein-B expression by type II cells” value ([1]; type II cells co-cultured with PGJ2-treated P10 myofibroblasts) was “comparable to that by lipofibroblasts”, the “type II cell proliferation (cell number)” value ([1]; type II cells co-cultured with PGJ2 pre-treated P10 myofibroblasts, 5 day culture) was “comparable to that of primary lipofibroblasts” and the “expression of ADRP by P10 myofibroblasts” value (Myofibroblasts (P10s)) was “increased the expression of ADRP”. For the same molecule, the “hyperoxia induced lipo-to-myofibroblast transdifferentiation” value ([2]; 24 h treatment) was “partially blunts” and the “spontaneous decrease in ADRP mRNA expression” value ([2]; up to 72 h in culture) was “attenuated”.

With “PTHrP: Parathyroid Hormone-related Protein; PTHrP (1-34) and PTHrP (7-34) amide were obtained from Bachem” the “alpha SMA expression” value ([3]; P4 lipofibroblasts, 24 hour treatment) was “decreased alpha SMA expression down to levels comparable to those observed for P1s”, the “PTHrP receptor expression (printed in b310 as PTHrP expression)” value ([3]; lipofibroblasts treated at Passage 4 for 24 hours) was “increase in PTHrP expression up to a level comparable to that of P1s” and the ADRP expression [4] was “inducing ADRP expression”.

In the case of superoxide dismutase, the “prevention of hyperoxia-induced decrease in ADRP mRNA expression” value (d18 FRLFs) is reported as “ineffective”.
